# Results published in paper PMC7830714 (Molecular pharmaceutics, 2017).
# Molecular target: T1, ABCG2 (Homo sapiens, UniProt Q9UNQ0)
# T1 sequence (Q9UNQ0 1-655): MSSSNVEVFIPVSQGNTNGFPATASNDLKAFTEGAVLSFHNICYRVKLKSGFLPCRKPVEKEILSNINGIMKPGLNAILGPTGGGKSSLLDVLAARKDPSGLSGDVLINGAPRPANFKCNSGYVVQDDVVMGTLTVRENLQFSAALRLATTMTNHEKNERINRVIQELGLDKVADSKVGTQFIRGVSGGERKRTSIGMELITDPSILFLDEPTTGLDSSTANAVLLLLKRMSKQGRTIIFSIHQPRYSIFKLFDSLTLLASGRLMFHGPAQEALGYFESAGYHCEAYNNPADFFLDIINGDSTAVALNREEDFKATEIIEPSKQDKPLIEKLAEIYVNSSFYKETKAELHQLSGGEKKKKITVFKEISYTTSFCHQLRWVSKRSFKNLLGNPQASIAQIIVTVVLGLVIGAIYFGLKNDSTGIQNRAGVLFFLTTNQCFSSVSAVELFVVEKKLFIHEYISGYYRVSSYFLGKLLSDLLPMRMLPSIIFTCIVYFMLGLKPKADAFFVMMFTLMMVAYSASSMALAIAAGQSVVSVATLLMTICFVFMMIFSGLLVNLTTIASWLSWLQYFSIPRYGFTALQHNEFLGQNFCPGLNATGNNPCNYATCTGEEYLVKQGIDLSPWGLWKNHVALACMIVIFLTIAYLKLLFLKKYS
# Assay: inhibition of […]IAAP photoaffinity labeling in MCF7-FLV1000 membrane vesicles
# Type: binding
smiles,measurement,value
N#Cc1ccc(-c2c(-c3ncn[nH]3)sc(N3CCOCC3)c2C#N)c(F)c1 [PF-4989216],% inhibition of photolabeling at 10 μM,~ 55
